Laboratory results taken from PMC6009948, “Design and synthesis of benzopyran-based inhibitors of the hypoxia-inducible factor-1 pathway with improved water solubility” (Journal of Enzyme Inhibition and Medicinal Chemistry, 2017).
Converted amounts (≈) assume the structure as drawn. Like-named read-outs stand apart in the source and are kept apart here. Values belong to the molecule of their own block, whether it stands above or below them.

What was measured:
[1] = tested on: hypoxia-induced HIF transcriptional activity; assay: HRE-luciferase reporter assay in LN229-HRE-luciferase glioma cells; type: cell-based; details: read-out: IC50, HRE-luciferase reporter inhibitory activity
Experimental: These analogs were first evaluated for their ability to inhibit hypoxia-induced HIF transcriptional activity in LN229-HRE-luciferase glioma cells as described previously. Their inhibitory activities are presented as IC50 in Table 1.
All the analogs were assessed for their ability to inhibit the HIF-1 pathway using a luciferase reporter assay described previously. This assay reports the ability for a compound to inhibit HIF transcriptional activity. […] The same is true if the morpholino unit is directly attached to the sulfonyl group (6). In the two series of compounds (3, 4) with a substituted phenyl group replacing the benzopyran ring in 1, only introduction of the morpholino moiety at the para positions (3) allowed for the preservation of HIF inhibition activity.

[2] = set-up: method as in earlier work; details: daily treatments with 60 mg/kg for up to 12 weeks; cited from earlier work
[3] = set-up: method as in earlier work; details: cited from earlier work
[4] = Solubility by dynamic light scattering (particle aggregation); type: physicochemical; details: DLS; for Concentration of particle appearance in PBS: PBS with 1% DMSO, rested 1 h; for Concentration of particle appearance in water: de-ionised water with 1% DMSO, room temperature, rested 24 h
Experimental: To further investigate the true enhancement of solubility, particle aggregation was examined using dynamic light scattering (DLS). Selected compounds were treated according to the following procedure: • All centrifuge tubes and cuvettes were rinsed with either DCM or water and then vacuum dried before use to remove dust and any particulates. • Stock solutions (10 mM) of each compound of interest were prepared in filtered DMSO. • Six dilutions (0, 10, 20, 30, 50, and 100 µM) were prepared in filtered de-ionised water with 1% DMSO and allowed to rest at room temperature for 24 h after vortex. • DLS analysis was performed for each concentration on the Brookhaven Instrument Corporation, NanoBrook 90Plus Particle Size Analyzer, Version 5.20 (Holtsville, NY). • Additional experiments were performed at specific concentrations for each compound as follows: 0, 1, 3, 10, and 20 µM concentrations of 1; 0, 10, 12, and 20 µM of 2; 0, 5, 7, and 10 µM of 3a; and 0, 10, 20, 30, and 50 µM concentrations of 4a. • Additional experiments were repeated in filtered PBS* with 1% DMSO as follows: 0, 0.5, 1, 2, 3, and 5 µM concentrations of 1; 0, 5, 7, 10, 12, and 15 µM of 2; 0, 10, 12, 15, and 20 µM of 3a; and 0, 10, 20, 30, and 50 µM concentrations of 4a.
*Experiments in PBS were carried out the same way as the experiments in water except DMSO stock solutions were made at 5 mM and the PBS diluted samples rested for 1 h before particle analysis.
To investigate the true enhancement of aqueous solubility, particle aggregation was examined using DLS. DLS can detect particle sizes in solution by measuring changes in scattered light in relation to the Brownian motion of particles. It is commonly used to detect the particle sizes of various chemical and biological molecules, including small molecule inhibitors. Though there are several methods for detecting solubility, we chose the DLS method due to its ease, reproducibility, minimal sample requirement, and relative sensitivity to small particles.
The active compounds 3a and 4a were compared to their non-morpholine containing counterparts, 1 and 2, respectively (Figure 3). Solutions of varying concentrations of each compound were made in either water or PBS with 1% DMSO. […] DLS measurements, summarised in Table 2, reveal that 3a forms aggregates at approximately 10 µM, an order of magnitude higher than 1, which is insoluble at just 1 µM in water.

[5] = tested on: hypoxia-induced HIF transcriptional activity; details: cited from earlier work
[6] = tested on: brain, and pancreatic cancers; set-up: method as in earlier work; details: cited from earlier work
[7] = set-up: method as in earlier work; details: cited from earlier work; remark: listed apart in the source

Molecule: 3,4-Dimethoxy-N-(2-(morpholinomethyl)benzyl)-N-phenylbenzenesulfonamide [Compound 3c]
IC50 [1]: > 5 µM

Molecule: COc1ccc(S(=O)(=O)N(Cc2ccc3c(c2)C=CC(C)(C)O3)c2ccccc2)cc1OC [Compound 1, N-((2,2-dimethyl-2H-chromen-6-yl)methyl)-3,4-dimethoxy-N-phenylbenzenesulfonamide]
tolerability / side effects in mice [2]: minimal side effects
cytotoxicity [3]: Neither did 1 nor its analogs demonstrate cytotoxicity
Concentration of particle appearance in PBS [4]: 1 µM
Concentration of particle appearance in water [4]: 1 µM
IC50 ([5]; lead compound 1 (KCN1), read-out: IC50, HIF-dependent bioassay (HRE-luciferase reporter)): ~0.6 µM
in vivo inhibitory activity against brain, and pancreatic cancers [6]: very pronounced inhibitory activity
solubility in water [7]: 9 ng/mL (≈ 0.0193 µM)

Molecule: COc1ccc(S(=O)(=O)N(Cc2ccc3c(n2)C=CC(C)(C)O3)C2CCC2)cc1OC [Compound 2, N-cyclobutyl-N-((2,2-dimethyl-2H-pyrano[3,2-b]pyridin-6-yl)methyl)-3,4-dimethoxybenzenesulfonamide]
Concentration of particle appearance in PBS [4]: 10 µM
Concentration of particle appearance in water [4]: 10 µM
IC50 ([5]; lead compound 2 (64b), read-out: IC50, HRE-luciferase reporter inhibitory activity): ~0.3 µM

Molecule: COc1ccc(S(=O)(=O)N(Cc2ccc(CN3CCOCC3)cc2)c2ccccc2)cc1OC [Compound 3a, 3,4-Dimethoxy-N-(4-(morpholinomethyl)benzyl)-N-phenylbenzenesulfonamide]
IC50 ([1]; Glioma cell): 0.9 µM
Concentration of particle appearance in PBS [4]: 15 µM

Molecule: COc1ccc(S(=O)(=O)N(Cc2cccc(CN3CCOCC3)c2)c2ccccc2)cc1OC [Compound 3b, 3,4-Dimethoxy-N-(3-(morpholinomethyl)benzyl)-N-phenylbenzenesulfonamide]
IC50 ([1]; Glioma cell): > 5 µM

Molecule: COc1ccc(S(=O)(=O)N(Cc2ccc(N3CCOCC3)cc2)c2ccccc2)cc1OC [Compound 3d, 3,4-Dimethoxy-N-(4-morpholinobenzyl)-N-phenylbenzenesulfonamide]
IC50 ([1]; Glioma cell): 3.8 µM

Molecule: N-Cyclobutyl-3,4-dimethoxy-N-(2-(morpholinomethyl)benzyl)benzenesulfonamide [Compound 4c]
IC50 [1]: > 5 µM

Second part, the molecule after the results:

IC50 ([1]; Glioma cell): 1 µM
Concentration of particle appearance in water [4]: >100 µM
Molecule: COc1ccc(S(=O)(=O)N(Cc2ccc(CN3CCOCC3)cc2)C2CCC2)cc1OC [Compound 4a, N-Cyclobutyl-3,4-dimethoxy-N-(4-(morpholinomethyl)benzyl)benzenesulfonamide]

IC50 ([1]; Glioma cell): > 5 µM
Molecule: COc1ccc(S(=O)(=O)N(Cc2cccc(CN3CCOCC3)c2)C2CCC2)cc1OC [Compound 4b, N-Cyclobutyl-3,4-dimethoxy-N-(3-(morpholinomethyl)benzyl)benzenesulfonamide]

IC50 ([1]; Glioma cell): ~2.6 µM
Molecule: COc1ccc(S(=O)(=O)N(Cc2ccc(N3CCOCC3)cc2)C2CCC2)cc1OC [Compound 4d, N-Cyclobutyl-3,4-dimethoxy-N-(4-morpholinobenzyl)benzenesulfonamide]

IC50 ([1]; Glioma cell): > 5 µM
Molecule: COc1ccc(S(=O)(=O)N(CCN2CCOCC2)Cc2ccc3c(c2)C=CC(C)(C)O3)cc1OC [Compound 5a, N-((2,2-Dimethyl-2H-chromen-6-yl)methyl)-3,4-dimethoxy-N-(2-morpholinoethyl)benzenesulfonamide]

IC50 ([1]; Glioma cell): > 5 µM
Molecule: COc1ccc(S(=O)(=O)N(CCCN2CCOCC2)Cc2ccc3c(c2)C=CC(C)(C)O3)cc1OC [Compound 5b, N-((2,2-Dimethyl-2H-chromen-6-yl)methyl)-3,4-dimethoxy-N-(3-morpholinopropyl)benzenesulfonamide]

IC50 ([1]; Glioma cell): > 5 µM
Molecule: CC1(C)C=Cc2cc(CN(c3ccccc3)S(=O)(=O)N3CCOCC3)ccc2O1 [Compound 6a, N-((2,2-Dimethyl-2H-chromen-6-yl)methyl)-N-phenylmorpholine-4-sulfonamide]

IC50 ([1]; Glioma cell): > 5 µM
Molecule: CC1(C)C=Cc2cc(CN(C3CCC3)S(=O)(=O)N3CCOCC3)ccc2O1 [Compound 6b, N-Cyclobutyl-N-((2,2-dimethyl-2H-chromen-6-yl)methyl)morpholine-4-sulfonamide]
